molecular target: T1, histamine 3 receptor (H3R) (Homo sapiens, UniProt Q9Y5N1); experiment: Binding assay with 3H-(R)α-methylhistamine (competition binding, membranes of human HR3-CHO cell line); conditions: competition against 3H(R)α-Methylhistamine (1 nM), membrane of the human HR3-CHO cell line; Ki calculated from IC50 by Cheng-Prusoff equation
T1 construct: expressed in transfected cells; host or cells: CHO cells
Method: Binding assay with ^3H-(R)α-methylhistamine
Saturation binding experiments were performed using HR^3—CHO membranes prepared as described in Takahashi, K, Tokita, S., Kotani, H. (2003) J. Pharmacol. Exp. Therapeutics 307, 213-218.
An appropriate amount of membrane (60 to 80 μg protein/well) was incubated with increasing concentrations of ^3H(R)α-Methylhistamine di-hydrochloride (0.10 to 10 nM). Non specific binding was determined using a 200 fold excess of cold (R)α-Methylhistamine dihydrobromide (500 nM final concentration). The incubation was carried out at room temperature (in deep-well plates shaking for three hours). The final volume in each well was 250 μl. The incubation was followed by rapid filtration on GF/B filters (pre-soaked with 100 μl of 0.5% PEI in Tris 50 mM shaking at 200 rpm for two hours). The filtration was made using a cell-harvester and the filter plates were then washed five times with ice cold washing buffer containing 0.5 M NaCl. After harvesting, the plates were dried at 55° C. for 60 min, then we added scintillation fluid (Microscint 40, 40 microl in each well) and the amount of radioactivity on the filter was determined in Packard top-counter after shaking the plates for two hours at 200 rpm at room temperature.
Binding Buffer: 50 mM Tris-HCl pH 7.4 and 5 mM MgCl2×6H2O pH 7.4. Washing Buffer: 50 mM Tris-HCl pH 7.4 and 5 mM MgCl2×6H2O and 0.5 M NaCl pH 7.4.
Indirect measurement of affinity of H3R inverse agonists: twelve increasing concentrations (ranging from 10 μM to 0.3 nM) of the selected compounds were always tested in competition binding experiments using membrane of the human HR3—CHO cell line. An appropriate amount of protein, e.g. approximately 500 cpm binding of RAMH at Kd, were incubated for 1 hour at room temperature in 250 μl final volume in 96-well plates in presence of ^3H(R)α-Methylhistamine (1 nM final concentration=Kd). […]
All compounds were tested at a single concentration in duplicates. […] Ki's were calculated from IC50 based on Cheng-Prusoff equation (Cheng, Y, Prusoff, W H (1973) Biochem Pharmacol 22, 3099-3108).

T1 sequence (Q9Y5N1 whole entry): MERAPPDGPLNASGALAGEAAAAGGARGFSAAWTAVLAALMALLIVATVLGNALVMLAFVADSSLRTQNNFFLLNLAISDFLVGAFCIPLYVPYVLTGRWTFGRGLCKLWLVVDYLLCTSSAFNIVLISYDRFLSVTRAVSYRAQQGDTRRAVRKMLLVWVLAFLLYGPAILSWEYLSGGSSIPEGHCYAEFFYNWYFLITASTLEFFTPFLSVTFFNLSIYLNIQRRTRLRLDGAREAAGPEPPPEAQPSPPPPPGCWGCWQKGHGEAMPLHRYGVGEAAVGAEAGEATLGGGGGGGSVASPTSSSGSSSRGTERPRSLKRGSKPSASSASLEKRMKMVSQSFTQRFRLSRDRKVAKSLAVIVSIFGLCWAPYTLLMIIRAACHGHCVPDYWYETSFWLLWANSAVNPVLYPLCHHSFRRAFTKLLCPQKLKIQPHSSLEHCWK

Structure (SMILES)	Ki [nM]
CC(C)N1CCN(C(=O)c2cc3cc(OCCC4CCCN4C)ccc3[nH]2)CC1 (stereo not drawn) [Example 117, (4-Isopropyl-piperazin-1-yl)-{5-[2-(1-methyl-pyrrolidin-2-yl)-ethoxy]-1H-indol-2-yl}-methanone]	77
CC(C)N1CCC(Oc2ccc3[nH]c(C(=O)N4CCOCC4)cc3c2)C1 (stereo not drawn) [Example 2, [5-(1-Isopropyl-pyrrolidin-3-yloxy)-1H-indol-2-yl]-morpholin-4-yl-methanone]	23
CC(C)N1CCC(Oc2ccc3cc(C(=O)N4CCSCC4)[nH]c3c2)CC1 [Example 140, [6-(1-isopropyl-piperidin-4-yloxy)-1H-indol-2-yl]-thiomorpholin-4-yl-methanone]	93

Source: patent US7361682B2, “Indole derivatives as H3 inverse agonists” (Hoffmann-La Roche Inc., priority 2004, dated 2008)
